From patent publication EP1007514B1, “HETEROCYCLIC KETONES AS NPY Y5 ANTAGONISTS” (BAYER CORPORATION, priority 1997, dated 1999)

Key:
human NPY Y2 = target: T1, human NPY Y2 (Homo sapiens, UniProt P49146); test: NPY Y2 receptor membrane binding, [125I]PYY; settings: membrane protein; 25 pM [125I]PYY; test compounds at 5 µM final concentration; read-out: IC50 (µM) NPY receptor indicated hY2
T1 sequence (P49146 1-381): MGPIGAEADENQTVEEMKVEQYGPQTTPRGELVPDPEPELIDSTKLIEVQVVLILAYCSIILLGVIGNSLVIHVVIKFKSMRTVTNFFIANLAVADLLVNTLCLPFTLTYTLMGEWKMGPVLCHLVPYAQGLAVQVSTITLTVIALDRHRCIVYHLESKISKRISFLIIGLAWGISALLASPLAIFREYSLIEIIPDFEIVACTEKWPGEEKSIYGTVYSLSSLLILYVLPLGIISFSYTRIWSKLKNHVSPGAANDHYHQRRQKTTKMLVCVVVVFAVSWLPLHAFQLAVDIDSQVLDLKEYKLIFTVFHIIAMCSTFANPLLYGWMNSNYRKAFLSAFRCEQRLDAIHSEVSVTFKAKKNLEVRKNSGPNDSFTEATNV
Protocol: Assays to determine binding affinity for human NPY Y2 and Y4/PP1 receptor subtypes are performed on GF/C Millipore 96-well plates pretreated with 0.02% polyethylenimine. […] Samples consist of membrane protein, 25 pM [^125I]PYY and test compounds at 5 µM final concentration. Nonspecific binding is defined by 1 µM NPY. The binding buffer for human Y4/PP1 binding consists of 137 mM NaCl, 5.4 mM KCl, 0.44 mM KH2PO4, 1.26 mM CaCl2, 0.81 mM MgSO4, 20 mM HEPES, 1 mM dithiothreitol, 0.1% bacitracin, 100 mg/l streptomycin sulfate, 1 mg/l aprotinin, 10 mg/ml soybean trypsin inhibitor and 0.3% BSA, pH 7.4. Samples consist of membrane protein, 50 pM human [^125I] human PP (hPP:NEN DuPont, Boston MA) and test compounds diluted to a final concentration of 5 µM. One µM hPP is used to define nonspecific binding. After a 2 hour incubation at room temperature with constant mixing, the samples are aspirated on a vacuum manifold, and rinsed with ice-cold binding buffer. The amount of radioactivity in each well is quantitated with either gamma counting or liquid scintillation.

[1] = target: T2, rat NPY Y5 receptor subtype (Rattus norvegicus, UniProt Q63634); test: NPY Y5 receptor membrane binding, [125I]PYY (rat); settings: membrane protein; 75-100 pM [125I]PYY; 50% inhibition of specific binding; read-out: IC50 (µM) NPY receptor indicated rY5
T2 sequence (Q63634 1-445): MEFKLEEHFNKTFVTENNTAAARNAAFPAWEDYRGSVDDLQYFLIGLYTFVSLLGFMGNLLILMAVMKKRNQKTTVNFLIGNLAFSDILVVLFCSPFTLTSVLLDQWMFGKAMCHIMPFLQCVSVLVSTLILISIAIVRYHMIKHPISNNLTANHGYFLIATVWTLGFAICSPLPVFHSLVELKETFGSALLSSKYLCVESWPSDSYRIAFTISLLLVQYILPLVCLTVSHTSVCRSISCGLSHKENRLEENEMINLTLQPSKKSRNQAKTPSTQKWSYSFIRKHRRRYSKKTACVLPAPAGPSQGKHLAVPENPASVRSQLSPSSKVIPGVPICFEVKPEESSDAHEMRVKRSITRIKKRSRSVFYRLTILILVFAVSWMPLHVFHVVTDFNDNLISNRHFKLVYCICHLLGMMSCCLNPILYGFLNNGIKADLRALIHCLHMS
Protocol: Assays to determine human and rat NPY Y5 receptor subtype binding affinity are performed on GF/C Millipore 96-well plates pretreated with 0.02% polyethylenimine. The binding buffer is 25 mM Tris, 120 mM NaCl, 5 mM KCl, 1.2 mM KH2PO4, 2.5 mM CaCl2, 1.2 mM MgSO4, 0.1% BSA and 0.5 mg/ml bacitracin, pH 7.4. Samples consist of membrane protein, 75-100 pM [^125I] PYY (porcine, NEN-DuPont) and test compounds diluted in binding buffer. Nonspecific binding is defined by 1 µM PYY. After a 2 hour incubation at room temperature with constant mixing, the samples are aspirated on a vacuum manifold and rinsed with ice-cold binding buffer. The amount of radioactivity in each well is quantitated with either gamma counting or liquid scintillation. IC50 values, which correspond to 50% inhibition of specific binding, are determined with non-linear regression analysis.

rat NPY Y5 receptor = target: T3, rat NPY Y5 receptor (Rattus norvegicus, UniProt Q63634); test: In vitro functional assay, forskolin-stimulated cAMP in cells stably expressing the receptor; assay type: cell-based; settings: percentage of forskolin-stimulated adenylate cyclase; 1 µM forskolin; test compound 10 µM; 80 - 120% indicates no significant agonistic effect
T3 construct: expressed in transfected cells
T3 sequence (Q63634 1-445): T2 sequence (Q63634 1-445)
Protocol: An in vitro functional assay to determine rat NPY Y5 receptor subtype binding affinity is performed by resuspending cells stably expressing the rat NPY Y5 receptor in serum-free DMEM containing 10 mM HEPES (pH 7.4) and 1 mM isobutylmethylxanthine (IBMX). One µM forskolin and test compounds at a final concentration of 10 µM are then added to the cells. After a 20 minute incubation of the samples at 37°C, the assay is stopped by placing the samples in boiling water for 3 minutes. The cAMP produced in each sample is quantitated with a radioimmunoassay kit (NEN DuPont). Data are expressed as a percentage of forskolin-stimulated adenylate cyclase. Data between 80 - 120% indicates no significant agonistic effect.

Cc1ccc(SCC(C(=O)c2ncc[nH]2)c2ccccc2)cc1 (stereo not shown) [Compound 2, (1H-Imidazol-2-yl)-2-phenyl-3-p-tolylsulfanyl-propan-1-one]
IC50 (human NPY Y2): > 5 µM | IC50 [1]: 0.46 µM

COc1ccc(S(=O)(=O)CC(C(=O)c2nc3ccccc3[nH]2)c2ccccc2)cc1 (stereo not shown) [Compound 10, 1-(1H-Benzoimidazol-2-yl)-3-(4-methoxy-benzenesulfonyl)-2-phenyl-propan-1-one]
IC50 (human NPY Y2): > 5 µM | % forskolin at 10 µM (rat NPY Y5 receptor): 106% | IC50 [1]: 0.0067 µM

COc1ccc2[nH]c(C(=O)C(CS(=O)(=O)c3ccc(C)cc3)c3ccccc3)nc2c1 (stereo not shown) [Compound 14, 1-(5-Methoxy-1H-benzoimidazol-2-yl)-2-phenyl-3-(toluene-4-sulfonyl)-propan-1-one]
IC50 (human NPY Y2): > 5 µM | % forskolin at 10 µM (rat NPY Y5 receptor): 99%

Cc1ccc(S(=O)(=O)CC(C(=O)c2nc3ccccc3s2)c2ccccc2)cc1 (stereo not shown) [Compound 6, 1-Benzothizol-2-yl-2-phenyl-3-(toluene-4-sulfonyl)-propan-1-one]
IC50 (human NPY Y2): > 5 µM | % forskolin at 10 µM (rat NPY Y5 receptor): 89% | IC50 [1]: 10 µM

Cc1ccc(S(=O)(=O)CC(C(=O)c2nc3cc(C)c(C)cc3[nH]2)c2ccccc2)cc1 (stereo not shown) [Compound 7, (5,6-Dimethyl-1H-benzoimidazol-2-yl)-2-phenyl-3-(toluene-4-sulfonyl)-propan-1-one]
IC50 (human NPY Y2): 8.3 µM | % forskolin at 10 µM (rat NPY Y5 receptor): 122% | IC50 [1]: 0.0526 µM

O=C(c1nc2ccccc2[nH]1)C(CS(=O)(=O)c1ccccc1)c1ccccc1 (stereo not shown) [Compound 8, 3-Benzenesulfonyl-1-(1H-benzoimidazol-2-yl)-2-phenyl-propan-1-one]
IC50 (human NPY Y2): > 5 µM | % forskolin at 10 µM (rat NPY Y5 receptor): 105% | IC50 [1]: 0.011 µM
